Values quoted from earlier work in article PMC5152921, “Evolutionary and Functional Diversification of the Vitamin D Receptor-Lithocholic Acid Partnership” (PLoS ONE, 2016).

System: all eight VDRs tested
Set-up: method as in PMID 25279795, PMID 25855982
Conditions: transient transactivation assays; cited from earlier work

C=C1/C(=C\C=C2/CCC[C@]3(C)[C@@H]([C@H](C)CCCC(C)(C)O)CC[C@@H]23)C[C@@H](O)C[C@@H]1O [1,25D3, 1α,25-dihydroxyvitamin D3]
VDR transactivation: activates all eight VDRs tested
